Values of other authors, collected in US7259160B2, “Hexahydrodiazepinones as dipeptidyl peptidase-IV inhibitors for the treatment or prevention of diabetes” (Merck & Co., Inc., priority 2003, dated 2007).

Key:
hematopoiesis = conditions: mouse, cyclophosphamide-induced neutropenia
DPP-IV = target: T1, DPP-IV (Homo sapiens, UniProt P27487)
T1 construct: GRF is rapidly degraded in plasma to GRF[344]
T1 sequence (P27487 whole entry, species assumed): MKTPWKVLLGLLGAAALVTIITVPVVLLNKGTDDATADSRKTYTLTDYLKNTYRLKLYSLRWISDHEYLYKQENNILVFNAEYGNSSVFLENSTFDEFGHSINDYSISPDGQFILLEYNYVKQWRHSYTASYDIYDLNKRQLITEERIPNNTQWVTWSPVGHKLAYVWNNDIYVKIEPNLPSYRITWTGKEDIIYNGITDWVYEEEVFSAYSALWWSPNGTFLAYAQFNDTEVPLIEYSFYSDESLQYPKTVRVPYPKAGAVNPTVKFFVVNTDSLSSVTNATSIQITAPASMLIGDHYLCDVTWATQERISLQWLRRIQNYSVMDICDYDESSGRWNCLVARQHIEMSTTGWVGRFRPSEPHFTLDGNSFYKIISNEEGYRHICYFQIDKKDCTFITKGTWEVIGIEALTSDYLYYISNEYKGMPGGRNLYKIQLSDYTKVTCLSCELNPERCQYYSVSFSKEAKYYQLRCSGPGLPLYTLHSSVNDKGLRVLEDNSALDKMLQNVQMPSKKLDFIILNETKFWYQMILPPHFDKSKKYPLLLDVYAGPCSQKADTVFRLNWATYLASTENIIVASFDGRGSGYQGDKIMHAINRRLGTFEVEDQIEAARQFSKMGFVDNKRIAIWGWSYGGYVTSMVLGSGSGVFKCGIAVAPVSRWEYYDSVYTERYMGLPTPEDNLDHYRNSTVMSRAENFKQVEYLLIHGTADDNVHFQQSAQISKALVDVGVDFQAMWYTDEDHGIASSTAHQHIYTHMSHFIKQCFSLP

| Compound | hematopoiesis (hematopoiesis) | degradation of GRF in plasma (DPP-IV) |
| --- | --- | --- |
| CC(C)[C@H](N)C(=O)N1CCC[C@H]1B(O)O [Val-Boro-Pro] | stimulated hematopoiesis |  |
| diprotin A |  | prevented |
